Measurements as given in article PMC6137088, “The Role of Outer Membrane Proteins and Lipopolysaccharides for the Sensitivity of Escherichia coli to Antimicrobial Peptides” (Frontiers in Microbiology, 2018).
Values after ≈ are worked out from the molar mass of the structure shown. Where no end group is shown, it is not given here.

Assays:
E. coli ATCC25922 = assay type: cell-based, Escherichia coli; details: Table 6; E. coli ATCC25922 wild-type; triplicates
From the text: (§1) The E. coli strains 470, F632, F653 and F2513 were kindly provided by Prof. H. Brade and Prof. S. Muller-Loennies, Research Center Borstel, Leipniz-Center for Medicine and Biosciences, Germany. E. coli BW25113 (CGSC#:7636), a derivative of F^−, λ^− E. coli K12 strain BD792 is the wild-type strain which was used in the generation of the KEIO collection and ordered from the Coli Genetic Stock Centre (CGSC, Yale University). E. coli JW3596, E. coli JW3024, E. coli JW3595, E. coli JW3606, E. coli JW0212, E. coli JW1667, E. coli JW0554, E. coli JW3605 and E. coli JW3600 are isogenic mutants of waaC, waaE, waaF, waaG, gmhA (lpcA), lpp, ompT, waaP, or waaY derived from the parental strain E. coli BW25113 and were ordered from the KEIO collection (Baba et al., [2006]). E. coli ATCC25922 is a clinical isolate, serotype O6, often used as control strain in antimicrobial susceptibility testing was ordered from the ATCC strain collection. All strains were grown in Mueller-Hinton-II medium and incubation took place aerobically at 37°C for 18–20 h.
(§2) The minimum inhibitory concentrations (MICs) of the AMPs were measured in 96-well microtiter plates according the Clinical and Laboratory Standards Institute [CLSI, formerly National Committee for Clinical Laboratory Standards (NCCLS)] (Wikler et al., [2009]). Liquid Mueller-Hinton-II medium containing increasing concentrations of AMPs is inoculated with a defined number of cells (~10^5 CFUs/ml) in 96-well microtiter plates (polypropylene). Each microtiter plate includes a positive growth control and a negative control (sterile control). After incubation, the minimal inhibitory concentration (MIC) is determined by the lowest concentration showing no visible growth. All plates were incubated for 16–20 h.

E. coli ATCC25922 ΔwaaG = assay type: cell-based, Escherichia coli; details: Table 6, triplicates
From the text: as §1, §2

E. coli ATCC25922 ΔwaaF = assay type: cell-based, Escherichia coli; details: Table 6, triplicates
From the text: as §1, §2

E. coli ATCC25922 ΔwaaE = assay type: cell-based, Escherichia coli; details: Table 6, triplicates
From the text: as §1, §2

E. coli ATCC25922 ΔwaaC = assay type: cell-based, Escherichia coli; details: Table 6, triplicates
From the text: as §1, §2

[1] = system: E. coli BW25113 waaY::kan; assay type: cell-based, Escherichia coli; details: Table 3, Mueller-Hinton-II, 16–20 h, duplicates (*) or triplicates
From the text: as §1, §2

E. coli F653 (R3) = assay type: cell-based, Escherichia coli; details: Table 4; E. coli F653 (R3 prototype, rough LPS); triplicates
From the text: as §1, §2

[2] = system: E. coli BW25113 ompT::kan; assay type: cell-based, Escherichia coli; details: Table 3; BW25113 ompT::kan; Mueller-Hinton-II, 16–20 h; duplicates (*) or triplicates
From the text: as §1, §2

[3] = system: E. coli BW25113 waaG::kan; assay type: cell-based, Escherichia coli; details: Table 3; BW25113 waaG::kan; Mueller-Hinton-II, 16–20 h; duplicates (*) or triplicates
From the text: as §1, §2

E. coli BW25113 = assay type: cell-based, Escherichia coli; details: for MIC: Table 3, E. coli BW25113 wild type, Mueller-Hinton-II, ~10^5 CFUs/ml, 16–20 h, duplicates (*) or triplicates
From the text: as §1, §2

[4] = system: E. coli BW25113 waaF::kan; assay type: cell-based, Escherichia coli; details: Table 3; BW25113 waaF::kan; Mueller-Hinton-II, 16–20 h; duplicates (*) or triplicates
From the text: as §1, §2

[5] = system: E. coli BW25113 waaE::kan; assay type: cell-based, Escherichia coli; details: Table 3; BW25113 waaE::kan; Mueller-Hinton-II, 16–20 h; duplicates (*) or triplicates
From the text: as §1, §2

[6] = system: E. coli BW25113 waaP::kan; assay type: cell-based, Escherichia coli; details: Table 3; BW25113 waaP::kan; Mueller-Hinton-II, 16–20 h; duplicates (*) or triplicates
From the text: as §1, §2

[7] = system: E. coli BW25113 waaC::kan; assay type: cell-based, Escherichia coli; details: Table 3; BW25113 waaC::kan; Mueller-Hinton-II, 16–20 h; duplicates (*) or triplicates
From the text: as §1, §2

E. coli F2513 (R4) = assay type: cell-based, Escherichia coli; details: Table 4; E. coli F2513 (R4 prototype, rough LPS); triplicates
From the text: as §1, §2

E. coli F470 (R1) = assay type: cell-based, Escherichia coli; details: Table 4; E. coli F470 (R1 prototype, rough LPS); triplicates
From the text: as §1, §2

E. coli F632 (R2) = assay type: cell-based, Escherichia coli; details: Table 4; E. coli F632 (R2 prototype, rough LPS); triplicates
From the text: as §1, §2

[8] = system: E. coli strains representing core types K12, R1, R2, R3, R4 and ATCC25922; assay type: cell-based, Escherichia coli; details: span over isolates and core types of Table 4
From the text: as §1, §2

[9] = system: E. coli BW25113 gmhA::kan; assay type: cell-based, Escherichia coli; details: Table 3; BW25113 gmhA::kan; Mueller-Hinton-II, 16–20 h; duplicates (*) or triplicates
From the text: as §1, §2

Y. ruckeri 392/2003 = assay: MIC testing (CLSI broth microdilution); assay type: cell-based; details: Table 6, triplicates
Method: as §2

S. typhimurium LT2 = assay: MIC testing (CLSI broth microdilution); assay type: cell-based; details: Table 6, triplicates
Method: as §2

[10] = system: enteropathogenic E. coli EPEC E2348/69 ΔompT; details: ref Thomassin et al., 2012; cited from earlier work
From the text: (§3) Bacterial pathogens have evolved different mechanisms to resist the antimicrobial activity of cationic AMPs (Peschel and Sahl, [2006]). The production of proteases degrading and thereby inactivating cationic AMPs is one obvious way for bacteria to protect themselves against antimicrobials. Several omptins such as OmpT, and PgtE, all proteases found in the OM of various Gram-negative pathogens belonging to the Enterobacteriaceae family, have been associated with the degradation of AMPs (Hritonenko and Stathopoulos, [2007]). In particular, OmpT has been implicated in the proteolytic degradation ...

[11] = system: enterohemorrhagic E. coli EHEC EDL933; details: ref Thomassin et al., 2012; cited from earlier work
From the text: as §3

[12] = system: uropathogenic E. coli CFT073ΔompT; details: ref Brannon et al., 2013; cited from earlier work
From the text: as §3

Molecule | MIC [1] | Antimicrobial activity (MIC) (E. coli F653 (R3)) | MIC [2] | MIC [3] | MIC (E. coli BW25113) | MIC [4] | MIC [5] | MIC [6] | MIC [7] | Antimicrobial activity (MIC) (E. coli F2513 (R4)) | Antimicrobial activity (MIC) (E. coli F470 (R1)) | Antimicrobial activity (MIC) (E. coli F632 (R2)) | MIC over all the tested E. coli strains [8] | MIC [9] | also measured
GLRKRLRKFRNKIKEKLKKIGQKIQGLLPKLAPRTDY [Cap18] | 4 to 8 µg/mL | 4 to 8 µg/mL | 4 to 8 µg/mL | 4 µg/mL | 4 to 8 µg/mL | 4 µg/mL | 4 µg/mL | 4 to 8 µg/mL | 4 µg/mL | 2 to 4 µg/mL | 4 µg/mL | 4 µg/mL | 4 to 8 µg/mL | 4 to 8 µg/mL | Antimicrobial activity: MIC (E. coli ATCC25922): 4 to 8 µg/mL; Antimicrobial activity: MIC (E. coli ATCC25922 ΔwaaG): 4 µg/mL; Antimicrobial activity: MIC (E. coli ATCC25922 ΔwaaF): 2 to 4 µg/mL; Antimicrobial activity: MIC (E. coli ATCC25922 ΔwaaE): 4 µg/mL; Antimicrobial activity: MIC (E. coli ATCC25922 ΔwaaC): 2 to 4 µg/mL; Antimicrobial activity (MIC) (E. coli BW25113; Table 4, E. coli BW25113 (K12 core type), triplicates): 4 to 8 µg/mL; Antimicrobial activity: MIC (Y. ruckeri 392/2003): 2 to 4 µg/mL; Antimicrobial activity: MIC (S. typhimurium LT2): 4 to 8 µg/mL
LL-37 |  |  |  |  |  |  |  |  |  |  |  |  |  |  | decrease in MIC in the ΔompT mutant compared to parental EPEC E2348/69 (factor) [10]: unchanged; decrease of MIC by loss of OmpT in EHEC EDL933 (factor) [11]: 2; change of MIC in CFT073ΔompT compared to wild-type CFT073 [12]: unchanged
CC[C@H](C)[C@H](NC(=O)CN)C(=O)NCC(=O)N[C@@H](C)C(=O)N[C@H](C(=O)N[C@@H](CC(C)C)C(=O)N[C@@H](CCCCN)C(=O)N[C@H](C(=O)N[C@@H](CC(C)C)C(=O)N[C@H](C(=O)N[C@H](C(=O)NCC(=O)N[C@@H](CC(C)C)C(=O)N1CCC[C@H]1C(=O)N[C@@H](C)C(=O)N[C@@H](CC(C)C)C(=O)N[C@H](C(=O)N[C@@H](CO)C(=O)N[C@@H](Cc1c[nH]c2ccccc12)C(=O)N[C@H](C(=O)N[C@@H](CCCCN)C(=O)N[C@@H](CCCNC(=N)N)C(=O)N[C@@H](CCCCN)C(=O)N[C@@H](CCCNC(=N)N)C(=O)N[C@@H](CCC(N)=O)C(=O)N[C@@H](CCC(N)=O)C(N)=O)[C@@H](C)CC)[C@@H](C)CC)[C@@H](C)O)[C@@H](C)O)C(C)C)C(C)C [Melittin] | 16 to 32 µg/mL | 32 µg/mL | 32 ^* μg/ml | 4 µg/mL (≈ 1.41 µM) | 16 to 32 µg/mL | 4 µg/mL (≈ 1.41 µM) | 4 µg/mL (≈ 1.41 µM) | 4 µg/mL (≈ 1.41 µM) | 4 µg/mL (≈ 1.41 µM) | 4 µg/mL | 16 µg/mL | 32 µg/mL | 4 to 32 µg/mL | 2 ^* μg/ml | 
